Species on record: Rattus norvegicus
Assay: Open TG-GATES - Regimen: Single
Type: toxicity, organism-based, Sprague-Dawley
Set-up: regimen Single, gender Male, age 6 weeks
Conditions: in vivo, po, route gavage; for APTT / Bas / Eos / Fbg / Hb / Ht / Lym / MCH / MCHC / MCV / Mono / Neu / PT / Plat / RBC / Ret / WBC: tissue Blood; for KIDNEY_L / KIDNEY_R / KIDNEY_TOTAL: tissue Kidney; for LIVER: tissue Liver; for ALP / ALT / AST / BUN / CRE / Ca / DBIL / GLC / K / LDH / Na / PL / RALB / TBIL / TC / TG / TP / gamma-GTP / IP: tissue Plasma
[1] = 0 mg/kg, 3 h, dose level Control
[2] = 0 mg/kg, 6 h, dose level Control
[3] = 0 mg/kg, 9 h, dose level Control
[4] = 0 mg/kg, 24 h, dose level Control

Q: Which results are given for Oc1ncnc2[nH]ncc12 [ALLOPURINOL]?
A: TERMINAL_BW [1]: 209.8 g; APTT [1]: 16.7 s; Bas [1]: 0%; Eos [1]: 0.8%; Fbg [1]: 211 mg/dL; Hb [1]: 14 g/dL; Ht [1]: 41.7%; Lym [1]: 73.2%; MCH [1]: 21.9 pg; MCHC [1]: 33.7%; MCV [1]: 65.1 fL; Mono [1]: 7.4%; Neu [1]: 18.6%; PT [1]: 12.3 s; Plat [1]: 111.5 x10_4/uL; RBC [1]: 641.2 x10_4/ul; Ret [1]: 8.1%; WBC [1]: 95.8 x10_2/uL; KIDNEY_L [1]: 1 g; KIDNEY_R [1]: 1 g; KIDNEY_TOTAL [1]: 1.9 g; LIVER [1]: 10.1 g; ALP [1]: 925 IU/L; ALT [1]: 30.8 IU/L; AST [1]: 60 IU/L; BUN [1]: 12 mg/dL; CRE [1]: 0.5 mg/dL; Ca [1]: 10.9 mg/dL; DBIL [1]: 0.058 mg/dL; GLC [1]: 189.4 mg/dL; K [1]: 4.8 meq/L; LDH [1]: 96.6 IU/L; Na [1]: 139.2 meq/L; PL [1]: 137.4 mg/dL; RALB [1]: 3.7 g/dL; TBIL [1]: 0.4 mg/dL; TC [1]: 71.8 mg/dL; TG [1]: 59.4 mg/dL; TP [1]: 5.6 g/dL; gamma-GTP [1]: 1.4 IU/L; TERMINAL_BW [2]: 210 g; APTT [2]: 16.3 s; Bas [2]: 0%; Eos [2]: 1%; Fbg [2]: 212.6 mg/dL; Hb [2]: 14.1 g/dL; Ht [2]: 42%; Lym [2]: 80%; MCH [2]: 22.2 pg; MCHC [2]: 33.4%; MCV [2]: 66.3 fL; Mono [2]: 5.6%; Neu [2]: 13.6%; PT [2]: 12.3 s; Plat [2]: 111.5 x10_4/uL; RBC [2]: 634 x10_4/ul; Ret [2]: 8.2%; WBC [2]: 98.8 x10_2/uL; KIDNEY_L [2]: 0.9 g; KIDNEY_R [2]: 0.9 g; KIDNEY_TOTAL [2]: 1.8 g; LIVER [2]: 9.5 g; ALP [2]: 787 IU/L; ALT [2]: 31.8 IU/L; AST [2]: 62.2 IU/L; BUN [2]: 11.2 mg/dL; CRE [2]: 0.4 mg/dL; Ca [2]: 11.1 mg/dL; DBIL [2]: 0.032 mg/dL; GLC [2]: 185.4 mg/dL; K [2]: 5 meq/L; LDH [2]: 96.6 IU/L; Na [2]: 139 meq/L; PL [2]: 132 mg/dL; RALB [2]: 3.8 g/dL; TBIL [2]: 0.3 mg/dL; TC [2]: 71.8 mg/dL; TG [2]: 54.4 mg/dL; TP [2]: 5.6 g/dL; gamma-GTP [2]: 0.8 IU/L; TERMINAL_BW [3]: 204.6 g; APTT [3]: 16.6 s; Bas [3]: 0%; Eos [3]: 1%; Fbg [3]: 221.2 mg/dL; Hb [3]: 13.8 g/dL; Ht [3]: 41.1%; Lym [3]: 71.4%; MCH [3]: 21.8 pg; MCHC [3]: 33.7%; MCV [3]: 64.8 fL; Mono [3]: 9.6%; Neu [3]: 18%; PT [3]: 12.3 s; RBC [3]: 633.4 x10_4/ul; Ret [3]: 7.5%; WBC [3]: 81.8 x10_2/uL; KIDNEY_L [3]: 0.9 g; KIDNEY_R [3]: 0.9 g; KIDNEY_TOTAL [3]: 1.9 g; LIVER [3]: 9 g; ALP [3]: 761 IU/L; ALT [3]: 28.6 IU/L; AST [3]: 61.2 IU/L; BUN [3]: 12.4 mg/dL; CRE [3]: 0.4 mg/dL; DBIL [3]: 0.018 mg/dL; GLC [3]: 197.8 mg/dL; IP [3]: 11.2 mg/dL; K [3]: 4.7 meq/L; Na [3]: 139.2 meq/L; PL [3]: 136.4 mg/dL; RALB [3]: 3.8 g/dL; TBIL [3]: 0.4 mg/dL; TC [3]: 73 mg/dL; TG [3]: 48 mg/dL; TP [3]: 5.7 g/dL; gamma-GTP [3]: 1.2 IU/L; TERMINAL_BW [4]: 223.3 g; APTT [4]: 16.3 s; Bas [4]: 0.2%; Eos [4]: 0.8%; Fbg [4]: 219 mg/dL; Hb [4]: 13.4 g/dL; Ht [4]: 39.8%; Lym [4]: 72%; MCH [4]: 21.8 pg; MCHC [4]: 33.6%; MCV [4]: 65 fL; Mono [4]: 12.4%; Neu [4]: 14.8%; PT [4]: 12 s; Plat [4]: 110.8 x10_4/uL; RBC [4]: 613.4 x10_4/ul; Ret [4]: 8.1%; WBC [4]: 97 x10_2/uL; KIDNEY_L [4]: 1 g; KIDNEY_R [4]: 1 g; KIDNEY_TOTAL [4]: 2 g; ALP [4]: 987.2 IU/L; ALT [4]: 31.2 IU/L; AST [4]: 63.4 IU/L; BUN [4]: 18 mg/dL; CRE [4]: 0.5 mg/dL; DBIL [4]: 0.02 mg/dL; GLC [4]: 193.2 mg/dL; IP [4]: 8.4 mg/dL; K [4]: 5.1 meq/L; LDH [4]: 94 IU/L; Na [4]: 138 meq/L; PL [4]: 153.4 mg/dL; RALB [4]: 3.8 g/dL; TBIL [4]: 0.3 mg/dL; TC [4]: 81.6 mg/dL; TG [4]: 99 mg/dL; TP [4]: 5.7 g/dL; gamma-GTP [4]: 1.2 IU/L; TERMINAL_BW (15 mg/kg, 3 h, dose level Low): 213.7 g

Reference: ChEMBL document CHEMBL3885861, “Open TG-GATES”
